pEC50: −log10 of the molar value.

In this experiment the target is T1, γ-secretase (Homo sapiens, UniProt P49768).
T1 construct: Human neuroglioma H4 cells overexpressing human APP695; endogenous in cells; host or cells: human neuroglioma H4 cells stably overexpressing human APP695 Swedish
The experiment in a line: Cellular γ-secretase assay (inhibition of Aβ42 secretion, AlphaLisa). It is filed as cell-based. Conditions: Human neuroglioma H4 cells overexpressing human APP695 Swedish double mutation; 24 hr compound incubation; secreted Aβ42 in supernatant. As to the method: Description of γ-Secretase Assay
Cellular γ-Secretase Assay
Human neuroglioma H4 cells overexpressing human APP695 with the Swedish double mutation (K595N/M596L) were plated at 30,000 cells/well/100 al in 96-well plates in IMDM media containing 10% FCS, […] Hygromycin B and incubated at 37° C., 5% CO2.
3-4 hr post plating, compounds are a diluted in media and 50 μl is added as 1.5-fold concentrate to achieve the final concentration. Compound incubation is performed for 24 hr. Final doses typically range from 4 μM down to 0.0013 μM in half-log steps resulting in a eight point dose response curve.
Appropriate controls using vehicle only and reference compound were applied to this assay. The final concentration of Me2SO was 0.4%.
After incubation at 37° C., 5% CO2, the supernatant was subjected to quantification of secreted Aβ42 by the means of an AlphaLisa assay kit (Human Amyloid beta 1-42 Kit: Cat #AL203C, Perkin Elmer). 20 μl of the cell culture supernatant was transferred to an assay plate. Then 10 μl of a mixture of the AlphaLisa coupled capture antibody and the biotinylated detection antibody was added and incubated for 3 hours at room temperature while softly shaking the assay plate. After a further addition of 20 μl of the Donor beads the assay plate was incubated for 30 min at room temperature and constant shaking without exposure to direct light. The assay plate was then read on a Paradigm AlphaLisa Reader using the build-in program with excitation at 680 nm and emission at […].
The measured signals were then used to calculate IC50 values for inhibition of Aβ42 secretion by nonlinear regression fit analysis using XLfit 5.3 software (IDBS).
In general terms: Bead proximity is the source of the signal in Alpha formats.
For `Cc1cc(N2C[C@H]3CC[C@@H](C2)[C@@H]3Nc2nc3n(n2)CCCC[C@H]3c2cccc(C(F)(F)F)c2)ncn1` [Example 12, (9S)—N-[(1R,5S,8S)-3-(6-methylpyrimidin-4-yl)-3-azabicyclo[3.2.1]octan-8-yl]-9-[3-(trifluoromethyl)phenyl]-6,7,8,9-tetrahydro-5H-[1,2,4]triazolo[1,5-a]azepin-2-amine], the negative logarithm of the EC50 (pEC50) (usually the negative decadic logarithm of the EC50, by convention in mol/L) was 7.83.

Turning to `Cc1cc(N2C[C@H]3CC[C@@H](C2)[C@@H]3Nc2nc3n(n2)CCCC[C@@H]3c2ccc(F)c(F)c2F)ncn1` [Example 16, (9R)—N-[(1R,5S,8S)-3-(6-methylpyrimidin-4-yl)-3-azabicyclo[3.2.1]octan-8-yl]-9-(2,3,4-trifluorophenyl)-6,7,8,9-tetrahydro-5H-[1,2,4]triazolo[1,5-a]azepin-2-amine], the negative-log EC50 (pEC50) was 8.15. Against the preceding molecule, the pEC50 is 0.32 log units higher.

`Cc1cc(N2C[C@H]3CC[C@@H](C2)[C@@H]3Nc2nc3n(n2)CCCC[C@H]3c2ccc(C(F)(F)F)cc2)ncn1` [Example 4, (9S)—N-[(1R,5S)-3-(6-methylpyrimidin-4-yl)-3-azabicyclo[3.2.1]octan-8-yl]-9-[4-(trifluoromethyl)phenyl]-6,7,8,9-tetrahydro-5H-[1,2,4]triazolo[1,5-a]azepin-2-amine] gave a negative logarithm of the EC50 (pEC50) of 7.43.

`Cc1cc(N2C[C@H]3CC[C@@H](C2)[C@@H]3Nc2nc3n(n2)CCCCC3c2cccc(C(F)(F)F)c2)ncn1` (mixture of isomers) [Example 11, N-[(1R,5S,8S)-3-(6-methylpyrimidin-4-yl)-3-azabicyclo[3.2.1]octan-8-yl]-9-[3-(trifluoromethyl)phenyl]-6,7,8,9-tetrahydro-5H-[1,2,4]triazolo[1,5-a]azepin-2-amine] showed a negative-log EC50 (pEC50) of 7.55.

The molecule `COc1cc(N2C[C@H]3CC[C@@H](C2)[C@@H]3Nc2nc3n(n2)CCCCC3c2ccc(F)c(F)c2F)ccn1` (stereo partly drawn) [Example 20, N-[(1R,5S,8S)-3-(2-methoxy-4-pyridyl)-3-azabicyclo[3.2.1]octan-8-yl]-9-(2,3,4-trifluorophenyl)-6,7,8,9-tetrahydro-5H-[1,2,4]triazolo[1,5-a]azepin-2-amine] showed a negative logarithm of the EC50 (pEC50) of 8.07.

`Cc1cc(N2C[C@H]3CC[C@@H](C2)[C@@H]3Nc2nc3n(n2)CCCC[C@H]3c2ccc(F)c(F)c2F)ncn1` [Example 15, (9S)—N-[(1R,5S,8S)-3-(6-methylpyrimidin-4-yl)-3-azabicyclo[3.2.1]octan-8-yl]-9-(2,3,4-trifluorophenyl)-6,7,8,9-tetrahydro-5H-[1,2,4]triazolo[1,5-a]azepin-2-amine] had a pEC50 of 8.08.

Regarding `Fc1ccc(C2CCCCn3nc(N[C@@H]4[C@@H]5CC[C@H]4CN(c4ccnc(C(F)(F)F)c4)C5)nc32)c(F)c1F` (stereo partly drawn) [Example 1, N-[(1R,5S,8S)-3-[2-(trifluoromethyl)-4-pyridyl]-3-azabicyclo[3.2.1]octan-8-yl]-9-(2,3,4-trifluorophenyl)-6,7,8,9-tetrahydro-5H-[1,2,4]triazolo[1,5-a]azepin-2-amine], the negative-log EC50 (pEC50) was 7.46.

`Cc1cc(N2C[C@H]3CC[C@@H](C2)[C@@H]3Nc2nc3n(n2)CCCC[C@@H]3c2cccc(C(F)(F)F)c2)ncn1` [Example 13, (9R)—N-[(1R,5S,8S)-3-(6-methylpyrimidin-4-yl)-3-azabicyclo[3.2.1]octan-8-yl]-9-[3-(trifluoromethyl)phenyl]-6,7,8,9-tetrahydro-5H-[1,2,4]triazolo[1,5-a]azepin-2-amine] gave a negative logarithm of the EC50 (pEC50) of 7.82.

`Fc1ccc([C@H]2CCCCn3nc(N[C@@H]4[C@@H]5CC[C@H]4CN(c4cc(Cl)ncn4)C5)nc32)c(F)c1F` [Example 19, (9R)—N-[(1R,5S,8S)-3-(6-chloropyrimidin-4-yl)-3-azabicyclo[3.2.1]octan-8-yl]-9-(2,3,4-trifluorophenyl)-6,7,8,9-tetrahydro-5H-[1,2,4]triazolo[1,5-a]azepin-2-amine] had a pEC50 of 7.90. The pEC50 values of the last two molecules are within 0.2 log units of each other.

`FC(F)(F)c1cccc(C2CCCCn3nc(N[C@@H]4[C@@H]5CC[C@H]4CN(c4ccnc(C(F)(F)F)c4)C5)nc32)c1` (stereo partly drawn) [Example 10, 9-[3-(trifluoromethyl)phenyl]-N-[(1R,5S,8S)-3-[2-(trifluoromethyl)-4-pyridyl]-3-azabicyclo[3.2.1]octan-8-yl]-6,7,8,9-tetrahydro-5H-[1,2,4]triazolo[1,5-a]azepin-2-amine] showed a negative-log EC50 (pEC50) of 7.47. Against the preceding molecule, the pEC50 is 0.43 log units lower.

Take `Cc1cc(N2C[C@H]3CC[C@@H](C2)[C@@H]3Nc2nc3n(n2)CCCC[C@H]3c2ccc(Cl)cc2)ncn1` [Example 8, (9S)-9-(4-chlorophenyl)-N-[(1R,5S,8S)-3-(6-methylpyrimidin-4-yl)-3-azabicyclo[3.2.1]octan-8-yl]-6,7,8,9-tetrahydro-5H-[1,2,4]triazolo[1,5-a]azepin-2-amine]: the pEC50 is 7.50.

Molecule `Cc1cc(N2C[C@H]3CC[C@@H](C2)C3Nc2nc3n(n2)CCCC[C@@H]3c2ccc(C(F)(F)F)cc2)ncn1` (stereo partly drawn) [Example 5, (9R)—N-[(1R,5S)-3-(6-methylpyrimidin-4-yl)-3-azabicyclo[3.2.1]octan-8-yl]-9-[4-(trifluoromethyl)phenyl]-6,7,8,9-tetrahydro-5H-[1,2,4]triazolo[1,5-a]azepin-2-amine] showed a negative-log EC50 (pEC50) of 7.94. This pEC50 lies 0.44 log units higher than the previous one.

Take `COc1cc(N2C[C@H]3CC[C@@H](C2)[C@@H]3Nc2nc3n(n2)CCCCC3c2ccc(F)c(F)c2F)ncn1` (stereo partly drawn) [Example 21, N-[(1R,5S,8S)-3-(6-methoxypyrimidin-4-yl)-3-azabicyclo[3.2.1]octan-8-yl]-9-(2,3,4-trifluorophenyl)-6,7,8,9-tetrahydro-5H-[1,2,4]triazolo[1,5-a]azepin-2-amine]: the pEC50 is 7.27.

For the origin of these results see US10941147B2, “Bicyclic heteroaryl derivatives” (Hoffmann-La Roche Inc., priority 2016, dated 2021).
